Data set [1] in a line: phase II trial, dose modifications in ER+/ERBB2-negative cohort (safety population). Type of data set: in vivo, human. As for the experimental part:
(§1) Administration of 5 μg/kg filgrastim was allowed for treatment-limiting neutropenia, and loperamide was used to treat diarrhea but was not allowed prophylactically in cycle 1.
Incidence and grades of AEs for all patients were analyzed using the safety population which included all patients (eligible and ineligible) who received at least 1 dose of study drug. Toxic effects were reported and tabulated by numbers and frequencies for all related AEs. SAS statistical software version 9.4 (SAS Institute) was used for all data analysis. Data were analyzed from March through May 2019.

Data set [2] has as its system TN metastatic or locally recurrent breast cancer. Description: randomized phase II trial, TN cohort, efficacy. Type of data set: in vivo, human.
Text: Other information about this phase II clinical trial is included in O'Shaughnessy et al., JAMA Network Open. 2021, 4(4):e214103, the entire contents of which are incorporated herein by reference.
Eligible patients were postmenopausal women aged 18 years or older with metastatic or unresectable locally recurrent breast cancer that was histologically confirmed as ER+/HER2− invasive breast cancer (any progesterone receptor status), with Ki67 greater than 15% in primary or metastatic tissue, or grade 3 TNBC, to enrich for more highly proliferative cancers that may be more dependent on AURKA. HER2− negative was defined as immunohistochemistry (IHC) status of 0, 1+, or 2+(if IHC was 2+, a negative FISH test was required with a ratio <2.0 and an average HER2 copy number <4.0 signals/cell). ER-negative and progesterone receptor (PR)-negative status was defined as ER and PR less than 1% nuclei positive by IHC. Patients may have been treated with 0 or 1 chemotherapy regimen for advanced disease and with neo/adjuvant taxane therapy at least 12 months before the development of metastatic disease. An Eastern Cooperative Group (ECOG) performance status of 0 or 1 and adequate hematologic, cardiac, renal, and liver function were required. Eligible patients were required to have measurable disease by Response Evaluation Criteria in Solid Tumors (RECIST v 1.1) criteria, or lytic or mixed blastic/lytic bone-only disease. Patients with untreated or progressing brain metastases, or those who required corticosteroids, were not eligible.
as §1
Computed tomography (CT) of chest, abdomen, and pelvis was performed at screening. Chest and abdominal CT imaging were then performed every 8 weeks after initiation of treatment for the first 32 weeks of treatment and every 12 weeks thereafter for the duration of the treatment period, and at End of Treatment (EoT). Pelvic CT imaging was obtained at subsequent tumor assessments only if pelvic metastases were identified at screening. Bone scans were obtained on all patients at screening and then every 12 weeks in patients with bone metastases on their baseline bone scan.
Patients were stratified as ER-positive, HER2-negative cohort and TN cohort based on results of ER, progesterone receptor, and HER2 measurements on their metastatic tissue, or, if not available, on their primary breast cancer tissue.
The TN and ER-positive, HER2-negative cohorts were analyzed independently, and no change to the statistical plan was made based on the underaccrual to the TN group.
Patients' baseline demographic and disease characteristics were summarized for the intent-to-treat population, which included all patients registered on study and were described by means with SDs and medians with ranges for continuous variables and by numbers with percentages for categorical variables. PFS was defined as the time from date of registration in the study to the date of first progression of disease or the date of death. Patients whose disease had not progressed were censored at the last contact date. OS was measured from the date of registration to the date of death. PFS and OS were estimated using Kaplan-Meier methods with 95% CIs in the intent-to-treat population and compared by log-rank tests.
The protocol-defined evaluable population included all eligible patients who received at least 1 dose of study drug. CBR and ORR were examined using univariate and multivariate approaches with Fisher exact tests and the logistic regression models. The 95% CIs were estimated for CBR and ORR assuming binomial distribution. A χ^2 test was used to estimate the differences between CBRs and ORRs in the two arms.

The mark [3] stands for this setting: Arm 1 (paclitaxel plus alisertib), n=66.
The mark [4] stands for this setting: TN cohort, evaluable patients (P+A n=16, P n=12).

Several values for one entry are separate records, joined by “and”; a condition that tells them apart may be missing. Equal values may be shown once.

For the compound `CC(=O)O[C@H]1C(=O)[C@@]2(C)[C@H]([C@H](OC(=O)c3ccccc3)[C@]3(O)C[C@H](OC(=O)[C@H](O)[C@@H](NC(=O)c4ccccc4)c4ccccc4)C(C)=C1C3(C)C)[C@]1(OC(C)=O)CO[C@@H]1C[C@@H]2O` [Paclitaxel, (2α,4α,5β,7β,10β,13α)-4,10-Bis(acetyloxy)-13-{[(2R,3S)-3-(benzoylamino)-2-hydroxy-3-phenylpropanoyl]oxy}-1,7-dihydroxy-9-oxo-5,20-epoxytax-11-en-2-yl benzoate], in data set [1] (setting [3]), the “Patients with both dose delay and reduction” value is reported as “(16.7) %”; the “Patients with dose delay alone” value was “(63.6) %”; the “Patients with dose discontinuation” value was “(16.7) %”; the “Patients with dose increased” value is listed as “(3.0) %”. For the same compound, the “Patients with dose reduction alone” value in data set [1] (setting [3]) is “(1.5) %”. The “Patients with dose delay alone” value in data set [1] (Arm 1 (paclitaxel plus alisertib), n=66, listed as paclitaxel) is 63.6%. Moreover, in data set [1] (Arm 2 (paclitaxel alone), n=70), the “Patients with both dose delay and reduction” value was “(31.4) %”; the “Patients with dose delay alone” value is listed as “(14.3) %”; the “Patients with dose discontinuation” value is reported as “(11.4) %”; the “Patients with dose increased” value is reported as 0%. In addition, the “Patients with dose reduction alone” value in data set [1] (Arm 2 (paclitaxel alone), n=70) is “(2.9) %”. Further, the “Patients with both dose delay and reduction” value in data set [1] (Arm 2 (paclitaxel alone), n=70, listed as paclitaxel alone) stood at 31.4%. Moreover, the “median (IQR) PFS” value in data set [2] (35 patients with TN MBC, intent-to-treat, listed as paclitaxel alone) was 5.7 (2.9-8.2) months and 5.7 months. In data set [2] (setting [4]), the “Best Overall Response: CR” value amounted to 0%, the “Best Overall Response: PD” value is given as 2 (16.7) %, the “Best Overall Response: PR” value is 5 (41.7) % and the “Best Overall Response: SD” value is 5 (41.7) %. Further, in data set [2] (setting [4]), the “CBR (CR + PR + SD ≥ 6 months)” value is on record as 7 (58.3) % and the “ORR (CR + PR)” value is given as 5 (41.7) %. Besides, the “median (IQR) OS” value in data set [2] (median follow-up 13.7 months) is listed as 12.7 (6.8-23.5) months.

The values above are taken from US20250268909A1, “Combination Therapy” (US Oncology Corporate, Inc., priority 2022, published 2025).
